Source: PMC11811597, “Phenomics‐Based Discovery of Novel Orthosteric Choline Kinase Inhibitors” (Angewandte Chemie (International Ed. in English), 2025)

Columns and labels:
Format in all cases: binding
TUBD1 = target: T1, TUBD1 (Homo sapiens, UniProt Q9UJT1); test: Competitive affinity-based chemoproteomics (UNC0965 matrix), MCF7 lysate; details: 20 μM competitor, n=2
T1 construct: endogenous in cells; host or cells: MCF7 whole cell lysate
Protocol: (§1) A-366 and UNC0638 were purchased from Tocris. ARIAD and V-11-07-11 were purchased from Wuxi Apptec. UNC0737 and UNC0965 were synthesised as previously described.[1] […]
(§2) #35050061). Cells were maintained at 37 °C in a humidified 5% CO2 atmosphere. […]
(§3) Chemical Proteomics Drug Pulldown
(§4) For lysate generation MCF7 cells were grown until approximately 80% confluency before being pelleted and washed with PBS. Cell pellets were subsequently lysed by addition of Buffer A (50 mM Tris pH 7.5, 0. 8% v/v NP-40, 5% v/v glycerol, 1.5 mM MgCl2, 100 mM NaCl, 25 mM NaF, 1 mM Na3VO4, 1 mM PMSF, 1 mM DTT, 10 μg mL−1 TLCK, 1 μg mL−1 Leupeptin, 1 μg mL−1 Aprotinin, 1 μg mL−1 soy bean trypsin) as previously described.[2]
(§5) For each pulldown condition, UNC0965 was coupled to 100 μL of UltraLink Immobilized Streptavidin Plus bead slurry (50% in isopropanol, GE Healthcare) to generate the affinity matrix as previously […]
(§6) described.[2] Lysates were precleared with bead slurry (100 μL) for 30 min at 4 °C and then treated with UNC0638 or UNC0737 (20 μM) or DMSO control for 30 min at 4 °C followed by incubation with affinity matrix for 2 h at 4 °C. Affinity matrices were washed with buffer A (5 mL) and proteins eluted with 100 μL of 2x Laemmli sample buffer, 100 mM DTT, in PBS and heating for 10 min at 90 °C.
(§7) Eluents (70 µL) were diluted in 0.1 M Tris (pH 7.8) to 200 µL, reduced with 5 mM DTT for 30 min at RT, and alkylated with 20 mM iodoacetamide for 30 min at RT in the dark. Proteins were precipitated by sequential addition of MeOH (600 µL), CHCl3 (150 µL) and H2O (450 µL), pelleted (17,000 × g, 5 min), washed with further MeOH (2 × 600 µL), and re-pelleted. Air dried pellets were resuspended in 50 μL 6 M urea (pH 7.8) by vortexing and then diluted with 250 μL H2O before adding 1 µg trypsin for overnight incubation at 37 °C. The digests were acidified with FA (1% v/v final concentration), desalted using SOLA HRP SPE Cartridges (Thermo Fisher), eluted with 69% v/v MeCN, 0.1% v/v FA in H2O (600 μL) and dried in vacuo. Dried peptides were stored at -20 °C before resuspension in 2% v/v MeCN, 0.1% v/v FA in H2O (20 μL) for LC-MS/MS analysis.
(§8) LC-MS/MS Data Acquisition
(§9) Digested samples were analysed by nano-UPLC–MS/MS using a Dionex Ultimate 3000 nano UPLC fitted with an EASY spray column (75 μm × 500 mm, 2 μm particle size, Thermo Scientific), coupled to an Orbitrap Q Exactive instrument. A 60 min gradient of 0.1% (v/v) formic acid in 5 % (v/v) DMSO to 0.1% (v/v) formic acid with 35% (v/v) acetonitrile in 5 % (v/v) DMSO at a flow rate of 250 nL min−1 was used. The instrument was operated in a data-dependant mode, with survey scans acquired at a resolution of 70,000 at 200 m/z and the 15 most abundant precursors selected for HCD fragmentation with an AGC target of […] ions.
(§10) Raw data was processed using MaxQuant[3] version 2.0.1.0 and the reference complete human proteome FASTA file (UniProt, downloaded 05.08.21). Label Free Quantification (LFQ) and Match Between Runs were selected; Cysteine carbamidomethylation was selected as a fixed modification, and methionine oxidation and asparagine deamidation as variable modifications. Default settings for identification and quantification were used. Specifically, a minimum peptide length of 7, a maximum of 2 missed cleavage sites, and a maximum of 5 labelled amino acids per peptide were allowed.
(§11) Through selection of the ‘trypsin/P’ general setting, peptide bond cleavage at arginine or lysine (followed by any amino acid) was considered during in silico digest of the reference proteome. The allowed precursor and fragment ion mass tolerances were 4.5 ppm and 20 ppm, respectively. Peptides and proteins were identified utilizing a 0.01 false discovery rate, with “unique and razor peptides” […]
(§12) mode selected for both identification and quantification of proteins (razor peptides are uniquely assigned to protein groups and not to individual proteins). At least 1 razor + unique peptides were required for valid quantification. […]

EHMT1 (GLP) = target: T2, EHMT1 (GLP) (Homo sapiens, UniProt Q9H9B1); test: as above; details: MCF7 lysates, 20 μM competitor
T2 construct: endogenous in cells; host or cells: MCF7 whole cell lysate
T2 sequence (Q9H9B1 whole entry): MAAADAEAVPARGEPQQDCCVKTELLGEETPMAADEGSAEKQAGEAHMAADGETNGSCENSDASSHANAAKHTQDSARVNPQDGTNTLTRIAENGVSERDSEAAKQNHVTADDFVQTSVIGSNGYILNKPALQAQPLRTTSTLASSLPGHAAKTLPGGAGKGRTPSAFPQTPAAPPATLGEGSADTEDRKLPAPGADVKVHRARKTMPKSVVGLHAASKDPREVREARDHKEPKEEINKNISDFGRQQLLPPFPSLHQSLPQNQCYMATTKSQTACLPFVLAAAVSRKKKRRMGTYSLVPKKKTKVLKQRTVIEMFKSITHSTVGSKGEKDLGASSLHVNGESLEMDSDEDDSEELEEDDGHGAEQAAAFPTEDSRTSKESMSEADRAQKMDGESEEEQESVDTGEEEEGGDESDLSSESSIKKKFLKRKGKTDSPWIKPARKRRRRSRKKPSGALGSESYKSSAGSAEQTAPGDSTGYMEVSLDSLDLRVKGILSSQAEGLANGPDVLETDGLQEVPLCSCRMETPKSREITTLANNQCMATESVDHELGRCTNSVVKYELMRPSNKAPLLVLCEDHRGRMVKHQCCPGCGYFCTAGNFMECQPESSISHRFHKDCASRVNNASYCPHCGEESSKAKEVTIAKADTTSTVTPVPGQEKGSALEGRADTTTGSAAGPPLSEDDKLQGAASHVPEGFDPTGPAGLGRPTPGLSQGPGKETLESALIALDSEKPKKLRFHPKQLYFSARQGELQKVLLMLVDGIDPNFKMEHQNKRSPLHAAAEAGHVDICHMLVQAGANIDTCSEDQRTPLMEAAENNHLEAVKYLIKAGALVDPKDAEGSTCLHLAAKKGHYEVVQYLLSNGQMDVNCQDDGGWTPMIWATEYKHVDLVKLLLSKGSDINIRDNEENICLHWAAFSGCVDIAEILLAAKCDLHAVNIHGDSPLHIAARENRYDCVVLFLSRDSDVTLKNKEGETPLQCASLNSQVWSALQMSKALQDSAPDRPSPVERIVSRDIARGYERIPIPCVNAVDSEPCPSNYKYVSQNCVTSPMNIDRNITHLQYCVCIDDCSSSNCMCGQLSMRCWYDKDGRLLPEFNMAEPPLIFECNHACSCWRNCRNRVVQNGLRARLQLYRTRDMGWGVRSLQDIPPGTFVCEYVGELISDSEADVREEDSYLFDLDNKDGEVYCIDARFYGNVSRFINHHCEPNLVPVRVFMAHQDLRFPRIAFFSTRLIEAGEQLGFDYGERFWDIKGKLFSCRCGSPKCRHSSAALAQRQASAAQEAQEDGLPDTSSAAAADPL
Protocol: as §1, §2, §3, §4, §5, §6, §7, §8, §9, §10, §11, §12

PRCP = target: T3, PRCP (Homo sapiens, UniProt P42785); test: as above; details: 20 μM competitor, n=2
T3 construct: endogenous in cells; host or cells: MCF7 whole cell lysate
T3 sequence (P42785 46-496): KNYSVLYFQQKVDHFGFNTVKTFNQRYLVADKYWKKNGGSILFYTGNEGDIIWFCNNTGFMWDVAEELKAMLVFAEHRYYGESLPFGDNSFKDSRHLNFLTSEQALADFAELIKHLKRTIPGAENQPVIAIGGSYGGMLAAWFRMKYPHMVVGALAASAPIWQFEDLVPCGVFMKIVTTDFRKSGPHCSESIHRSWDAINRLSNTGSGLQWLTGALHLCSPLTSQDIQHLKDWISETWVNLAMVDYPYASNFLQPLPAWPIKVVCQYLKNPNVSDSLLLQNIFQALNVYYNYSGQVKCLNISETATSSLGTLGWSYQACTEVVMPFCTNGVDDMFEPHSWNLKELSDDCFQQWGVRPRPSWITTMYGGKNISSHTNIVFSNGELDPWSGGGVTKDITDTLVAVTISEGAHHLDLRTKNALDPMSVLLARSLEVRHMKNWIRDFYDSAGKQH
Protocol: as §1, §2, §3, §4, §5, §6, §7, §8, §9, §10, §11, §12

CHKA = CHKA (Homo sapiens, UniProt P35790); test: PISA thermal profiling, K562 cell lysates; design: endogenous in cells; details: 30 µM; for stabilisation of CHKA (PISA): K562 cell lysates; for effect_CETSA_Lysate (PISA amplitude), CHKA: K562 lysate, 15 min, n=3
CHKA, sequence (P35790 whole entry): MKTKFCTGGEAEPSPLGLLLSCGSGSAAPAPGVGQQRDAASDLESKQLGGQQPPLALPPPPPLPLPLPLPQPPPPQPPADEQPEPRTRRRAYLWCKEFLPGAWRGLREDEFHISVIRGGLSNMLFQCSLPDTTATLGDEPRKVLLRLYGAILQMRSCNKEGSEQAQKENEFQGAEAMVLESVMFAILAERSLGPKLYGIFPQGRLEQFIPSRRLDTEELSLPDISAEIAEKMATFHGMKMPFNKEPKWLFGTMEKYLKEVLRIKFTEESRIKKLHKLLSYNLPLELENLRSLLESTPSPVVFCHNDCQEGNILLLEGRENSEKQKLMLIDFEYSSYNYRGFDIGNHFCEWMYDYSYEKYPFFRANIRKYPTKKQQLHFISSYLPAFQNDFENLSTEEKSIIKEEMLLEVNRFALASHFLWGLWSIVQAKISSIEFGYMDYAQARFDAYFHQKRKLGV
Protocol: Experiments were performed as described earlier with few modifications. In short, 3 replicates of intact HepG2 cells were treated with 30 µM UNC0638, […] or corresponding volume of DMSO in medium-free experimental buffer for 60 min at 37 °C with end-over-end rotation. For lysates: Washed K562 cells were resuspended in medium-free experimental buffer and lysed by three freeze-thaw cycles. Lysate was centrifugated 20,000 × g for 20 min at 4 °C to remove cell debris. The cleared lysate was treated with 30 µM UNC0638, UNC0373 or corresponding volume of DMSO for 15 min at RT with end-over-end rotation. Each treated cell suspension or lysate was divided into 12 aliquots and subjected to a 12-step heat gradient from 44 °C to 64 °C. All the temperature points were pooled together to form […] individual samples. Soluble fraction was separated from precipitated proteins […]
by centrifugation at 30,000 × g for 20 min at 4 °C. The soluble fractions were collected to fresh tubes and further processed to be analysed with mass spectrometry. Sample handling, TMT labelling, LC-MS/MS analysis, protein identification and data analysis was performed as described earlier.[12] […]
Figure S3: Western blot of elution fractions after chemical pulldown with UNC0965 in MCF7 cell extract pre-incubated with indicated compounds (20 μM) or DMSO.
Figure S4: PISA thermal profiling results in K562 cell lysates. A) Volcano plots of UNC0638 and […]
Dashed lines represent amplitude > 0.05, < - 0.05 and log10(adjusted p-values) > 2 (two-sided two sample t-test, Benjamini-Hochberg corrected, n = 3).
6,924 proteins were identified. B) UNC0737 stabilises CHKA stronger than UNC0638. […]

T1 sequence (Q9UJT1 whole entry): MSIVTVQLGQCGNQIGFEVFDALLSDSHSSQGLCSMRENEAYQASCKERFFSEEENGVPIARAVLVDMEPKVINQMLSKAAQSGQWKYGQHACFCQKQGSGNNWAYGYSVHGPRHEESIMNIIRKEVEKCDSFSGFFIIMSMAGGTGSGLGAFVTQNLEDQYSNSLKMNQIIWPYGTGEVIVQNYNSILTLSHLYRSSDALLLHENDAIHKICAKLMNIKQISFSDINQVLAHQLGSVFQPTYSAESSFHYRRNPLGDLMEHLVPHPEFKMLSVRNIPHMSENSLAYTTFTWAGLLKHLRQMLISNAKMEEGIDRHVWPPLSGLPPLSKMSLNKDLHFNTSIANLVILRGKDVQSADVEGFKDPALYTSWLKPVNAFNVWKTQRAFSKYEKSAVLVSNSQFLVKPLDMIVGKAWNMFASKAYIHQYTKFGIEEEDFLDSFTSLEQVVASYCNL

| Structure (SMILES) | FC vs DMSO (log2 competition), TUBD1 (TUBD1) | competition for EHMT1 (GLP) binding to affinity matrix (EHMT1 (GLP)) | FC vs DMSO (log2 competition), PRCP (PRCP) | stabilisation of CHKA (PISA) (CHKA) | effect_CETSA_Lysate (PISA amplitude), CHKA (CHKA) |
| --- | --- | --- | --- | --- | --- |
| COc1cc2c(NC3CCN(C(C)C)CC3)nc(C3CCCCC3)nc2cc1OCCCN1CCCC1 [UNC0638] | -2.877 | strong enrichment and competition | -2.542 | selective stabilisation of CHKA | 0.202 |
| COc1cc2c(N(C)C3CCN(C(C)C)CC3)nc(C3CCCCC3)nc2cc1OCCCN1CCCC1 [UNC0737] | -0.7809 | did not ablate binding | 0.1604 | selective stabilisation of CHKA | 0.504 |
